Key:
PI3K-p85α / IRS-1 = assay: Co-precipitation of PI3K p85α with IRS-1 in dermal fibroblasts; assay type: cell-based, rat; details: diabetic, TNF-α- or dexamethasone-exposed fibroblasts; EUK-134
Method: (§1) Primary dermal fibroblasts were obtained from dorsal skin of female Goto Kakizaki (GK, age 12-15 months) rats, a model for non-obese type 2 diabetes, and their Wistar control counterparts. After sterilization in povidine solution, rat skin was washed in sterile water and rinsed in 70% ethanol in PBS. Epidermis and dermis were separated following overnight incubation in 0.25% trypsine/EDTA at 4 C. Dermis was cut into small pieces and incubated in Dulbecco's modified Eagle medium (DMEM; Invitrogen) containing collagenase (250 U/ml; Sigma) for thirty min at 37 C in 5% CO2 with constant agitation. The sections were triturated vigorously to release fibroblasts, which were collected by centrifugation. […]
(§2) A hypercortisolemic state was mimicked by exposing control fibroblasts to dexamethasone (Dexa, Sigma) administered at 20 ng/ml every other day for a duration of 8 days. […] The concentration of IGF-1 (50 ng/ml, Peprotech) was determined by prior dose response experiment.
(§3) Levels/activities of key intracellular molecules in the IGF-1 signaling cascade including IRS-1, IRS-1 Tyr-p-612, PI3K-p85α, IRS-1 Ser-p (307), PI3K, Akt, p-Akt, INK and p-JNK were assessed using western blotting/immunoprecipitation and commercially available ELISA-based assays. […]

Akt = Akt phosphorylation, western blotting in dermal fibroblasts; assay type: cell-based, rat; details: diabetic, TNF-α- or dexamethasone-exposed cells; EUK-134; western blot
Method: as §1, §2, §3

IRS-1 = IRS-1 Ser307 phosphorylation in dermal fibroblasts; assay type: cell-based, rat; details: diabetic, TNF-α- or dexamethasone-exposed cells; EUK-134
Method: as §1, §2, §3

[1] = system: Jun N-terminal kinase (JNK); assay: JNK phosphorylation, FACE-JNK ELISA in fibroblasts; assay type: cell-based, rat; details: diabetic, TNF-α- or dexamethasone-exposed cells; EUK-134
Method: as §1, §2
Activation of Akt and JNK was analyzed in fixed fibroblasts using FACE-Akt and FACE-JNK (both from Active Motife). […] Labeling with antibodies was conducted according to the manufacturer's protocol and the resulting phosphoantibody signal was calculated after correction for number of cells and total Akt or JNK levels in each sample. […]

excisional wounds = assay: Full-thickness excisional wound healing, 7 days; assay type: in vivo, rat
Method: All animal procedures were performed in accordance with the NIH Guidance for the Care and Use of Laboratory Animals. The current study used, respectively the GK and Dexamethasone-treated rats as models for diabetes and hypercortisolemia. Dexamethasone was administered subcutaneously at a dose of 2.5 μg/kg body weight in the morning (8:00 AM) and in the evening (8:00 PM) for a duration of four weeks before wounding and this form of therapy continued during the course of healing. […] Weight and age-matched female Wistar rats (Kuwait University breeding colony) served as the corresponding controls. All of the animals were maintained under standard conditions with 12 hours on/off light cycle, commercial diet, and water ad libitum. GK rats destined for wounding were initially matched with regard to body weight (e.g., 230 to 250 g), and plasma levels of glucose, free fatty acids and insulin. These indices are commonly used to reflect the severity of the diabetic state.
Animals used for IGF-1 sensitivity (n=6/group) and wound healing (n=8) studies were partitioned into five study groups including control, diabetic, hypercortisolemic, diabetic+EUK and hypercortisolemic+EUK. The EUK-134 was administered for duration of four weeks before wound induction and it continued during the course of healing.
Animals derived from various experimental groups were anesthetized by ip, injection of 90 mg ketamine+10 mg xylazine/kg body weight, and their back skin was shaved, depilated with Nair and cleaned with 70% alcohol. Six bilateral full-thickness excisional wounds (8 mm in diameter) at equidistant from midline were created on the dorso-rostral back skin. Wounds were separated by a minimum of 1 cm of uninjured skin. […] The wound area was analyzed using Adobe PhotoShop (version 7.0; Adobe Systems) and the percentage of wound closure was derived by the following formula: (1−[current wound size/initial wound size])×100.

COc1cccc(C=NCCN=Cc2cccc(OC)c2[O-])c1[O-].[Cl-].[Mn+3] [EUK-134]
association of PI3K p85α with IRS-1 in response to IGF-1 (PI3K-p85α / IRS-1): restores this association
Akt phosphorylation in response to IGF-1 (Akt): partially restored
phosphorylation of IRS-1 at Ser307 (IRS-1): diminishes Ser307 phosphorylation to levels comparable to the basal level in normal fibroblasts
basal JNK activity (phosphorylation) [1]: returns its phosphorylation state to approximate levels found in normal fibroblasts
wound healing (excisional wounds; diabetic rats, treatment with EUK-134 and/or IGF-1): heal as rapidly as those on control rats
healing rates of wounds (excisional wounds; diabetic/hypercortisolemic rat wounds, antioxidant administered): statistically indistinguishable from control rat wounds treated with IGF-1 alone

— patent US8637461B2, “Method of diagnosing and treating oxidative stress-impaired wound healing” (Kuwait University, priority 2011, dated 2014)
